Laboratory results from patent publication US20250147039A1, “Compounds for complexation of rare earth elements and/or s-, p-, d- block metals, their coordination compounds, peptide conjugates, method of their preparation and use thereof” (USTAV ORGANICKE CHEMIE A BIOCHEMIE AV CR V.V.I., priority 2021, published 2025).
One block for each compound: values may come before it.

Tests used:
[1] = Formation of 1,5-cz-[Ln(Lig)] from Lig and Ln^III ions (metal dependent click-zip), MES/NaOH buffer pH 5.2, analytical HPLC (Chart 3); assay type: physicochemical
[2] = Formation of 1,5-cz-[M(Lig)] from Lig and M^III ions (metal dependent click-zip) (Charts 4, 5); assay type: physicochemical; conditions: MOPS/NaOH buffer pH 7.0, TD728, TD827 in 50% i-PrOH; for conversion to 1,5-cz-[M(Lig)], Y^III: TD714 sum of two diastereoisomers
[3] = Formation of 1,5-cz-[M(Lig)] from Lig and M^II ions (metal dependent click-zip) (Charts 6, 7); assay type: physicochemical; conditions: MOPS/NaOH buffer pH 7.0; for conversion to 1,5-cz-[M(Lig)], Ca^II / conversion to 1,5-cz-[M(Lig)], Cd^II: TD728 in 50% i-PrOH
[4] = Alkali metal dependent formation of 1,5-cz-Lig and 1,4-cz-Lig isomers from Lig at pH 10.2 (Chart 14); assay type: physicochemical; conditions: Borate/(M^I)2CO3 buffer pH 10.2
[5] = Formation of 1,5-cz-[Ln(Lig)] from Lig and Ln^III ions (metal dependent click-zip), MOPS/NaOH buffer pH 7.0, analytical HPLC (Charts 1, 2); conditions: MOPS/NaOH buffer pH 7.0
[6] = B: 1 day at 80° C., visible analyte free precipitate

conversion to 1,5-cz-[Ln(Lig)], Gd^III ([1]; after 1 hour at 80° C. (A)): 3% | conversion to 1,5-cz-[Ln(Lig)], Gd^III ([1]; after 18 hours at 80° C. (B)): 9% | conversion to 1,5-cz-[Ln(Lig)], Lu^III ([1]; after 1 hour at 80° C. (A)): 19% | conversion to 1,5-cz-[Ln(Lig)], Lu^III ([1]; after 18 hours at 80° C. (B)): 71%
Structure (SMILES): [N-]=[N+]=NCc1cc(-c2ccc(C(=O)O)cc2)cc(CN2CCN(CC(=O)O)CCN(Cc3cccc(C#CCN)n3)CCN(CC(=O)O)CC2)n1 [TD750]

conversion to 1,5-cz-[M(Lig)], Sc^III ([2]; 1 week at 80° C.): 0% | conversion to 1,5-cz-[M(Lig)], Y^III ([2]; 1 week at 80° C.): 14% | conversion to 1,5-cz-[M(Lig)], Sc^III ([2]; 1 hour at 80° C.): 0% | conversion to 1,5-cz-[M(Lig)], Y^III ([2]; 1 hour at 80° C.): 0% | conversion to 1,5-cz-[M(Lig)], Ba^II ([3]; 1 week at 80° C.): 0% | conversion to 1,5-cz-[M(Lig)], Sr^II ([3]; 1 week at 80° C.): 0% | conversion to 1,5-cz-[M(Lig)], Ca^II ([3]; 1 week at 80° C.): 0% | conversion to 1,5-cz-[M(Lig)], Cd^II ([3]; 1 week at 80° C.): 96% | conversion to 1,5-cz-[M(Lig)], Ba^II ([3]; 1 hour at 80° C.): 0% | conversion to 1,5-cz-[M(Lig)], Sr^II ([3]; 1 hour at 80° C.): 0% | conversion to 1,5-cz-[M(Lig)], Ca^II ([3]; 1 hour at 80° C.): 0% | conversion to 1,5-cz-[M(Lig)], Cd^II ([3]; 1 hour at 80° C., TD714 sum of two diastereoisomers): 92% | conversion to 1,4-cz-Lig isomer, Cs^I ([4]; A: 1 hour at 80° C.): 2% | conversion to 1,4-cz-Lig isomer, K^I ([4]; A: 1 hour at 80° C.): 2% | conversion to 1,4-cz-Lig isomer, Li^I ([4]; A: 1 hour at 80° C.): 1% | conversion to 1,4-cz-Lig isomer, Na^I ([4]; A: 1 hour at 80° C.): 2% | conversion to 1,4-cz-Lig isomer, Rb^I ([4]; A: 1 hour at 80° C.): 2% | conversion to 1,5-cz-Lig isomer, Cs^I ([4]; A: 1 hour at 80° C.): 2% | conversion to 1,5-cz-Lig isomer, K^I ([4]; A: 1 hour at 80° C.): 2% | conversion to 1,5-cz-Lig isomer, Li^I ([4]; A: 1 hour at 80° C.): 12% | conversion to 1,5-cz-Lig isomer, Na^I ([4]; A: 1 hour at 80° C.): 30% | conversion to 1,5-cz-Lig isomer, Rb^I ([4]; A: 1 hour at 80° C.): 2% | conversion to 1,4-cz-Lig isomer, Cs^I ([4]; B: 1 day at 80° C.): 31% | conversion to 1,4-cz-Lig isomer, K^I ([4]; B: 1 day at 80° C.): 31% | conversion to 1,4-cz-Lig isomer, Na^I ([4]; B: 1 day at 80° C.): 4% | conversion to 1,4-cz-Lig isomer, Rb^I ([4]; B: 1 day at 80° C.): 31% | conversion to 1,5-cz-Lig isomer, Cs^I ([4]; B: 1 day at 80° C.): 21% | conversion to 1,5-cz-Lig isomer, K^I ([4]; B: 1 day at 80° C.): 23% | conversion to 1,5-cz-Lig isomer, Na^I ([4]; B: 1 day at 80° C.): 89% | conversion to 1,5-cz-Lig isomer, Rb^I ([4]; B: 1 day at 80° C.): 21% | conversion to 1,4-cz-Lig isomer, Li^I [4, 6]: 6% | conversion to 1,5-cz-Lig isomer, Li^I [4, 6]: 86% | conversion to 1,5-cz-[Ln(Lig)], Ce^III ([5]; after 1 week at 80° C.): 0% | conversion to 1,5-cz-[Ln(Lig)], Ce^III ([5]; after 1 hour at 80° C.): 0% | conversion to 1,5-cz-[Ln(Lig)], Dy^III ([5]; after 1 week at 80° C.): 37% | conversion to 1,5-cz-[Ln(Lig)], Dy^III ([5]; after 1 hour at 80° C.): 1% | conversion to 1,5-cz-[Ln(Lig)], Er^III ([5]; after 1 week at 80° C.): 26% | conversion to 1,5-cz-[Ln(Lig)], Er^III ([5]; after 1 hour at 80° C.): 1% | conversion to 1,5-cz-[Ln(Lig)], Eu^III ([5]; after 1 week at 80° C.): 31% | conversion to 1,5-cz-[Ln(Lig)], Eu^III ([5]; after 1 hour at 80° C.): 1% | conversion to 1,5-cz-[Ln(Lig)], Gd^III ([5]; after 1 week at 80° C.): 28% | conversion to 1,5-cz-[Ln(Lig)], Gd^III ([5]; after 1 hour at 80° C.): 0% | conversion to 1,5-cz-[Ln(Lig)], Ho^III ([5]; after 1 week at 80° C.): 31% | conversion to 1,5-cz-[Ln(Lig)], Ho^III ([5]; after 1 hour at 80° C.): 1% | conversion to 1,5-cz-[Ln(Lig)], La^III ([5]; after 1 week at 80° C.): 0% | conversion to 1,5-cz-[Ln(Lig)], La^III ([5]; after 1 hour at 80° C.): 0% | conversion to 1,5-cz-[Ln(Lig)], Lu^III ([5]; after 1 week at 80° C.): 10% | conversion to 1,5-cz-[Ln(Lig)], Lu^III ([5]; after 1 hour at 80° C.): 1% | conversion to 1,5-cz-[Ln(Lig)], Nd^III ([5]; after 1 week at 80° C.): 43% | conversion to 1,5-cz-[Ln(Lig)], Nd^III ([5]; after 1 hour at 80° C.): 4% | conversion to 1,5-cz-[Ln(Lig)], Pr^III ([5]; after 1 week at 80° C.): 55% | conversion to 1,5-cz-[Ln(Lig)], Pr^III ([5]; after 1 hour at 80° C.): 5% | conversion to 1,5-cz-[Ln(Lig)], Sm^III ([5]; after 1 week at 80° C.): 42% | conversion to 1,5-cz-[Ln(Lig)], Sm^III ([5]; after 1 hour at 80° C.): 1% | conversion to 1,5-cz-[Ln(Lig)], Tb^III ([5]; after 1 week at 80° C.): 41% | conversion to 1,5-cz-[Ln(Lig)], Tb^III ([5]; after 1 hour at 80° C.): 1% | conversion to 1,5-cz-[Ln(Lig)], Tm^III ([5]; after 1 week at 80° C.): 18% | conversion to 1,5-cz-[Ln(Lig)], Tm^III ([5]; after 1 hour at 80° C.): 1% | conversion to 1,5-cz-[Ln(Lig)], Yb^III ([5]; after 1 week at 80° C.): 15% | conversion to 1,5-cz-[Ln(Lig)], Yb^III ([5]; after 1 hour at 80° C.): 1%
Structure (SMILES): C#Cc1cccc(CN2CCN(CP(=O)(O)c3ccccc3)CCN(Cc3cccc(CN=[N+]=[N-])n3)CCN(CP(=O)(O)c3ccccc3)CC2)n1 [TD921]
